Earlier results, collected in patent US8022179B2 (priority 2005, dated 2011).

System: wrinkles
Settings: in vivo; cited from earlier work

For ARGIRELINE, the wrinkle reduction is listed as “affords wrinkle reduction in certain cases”.
